US20230017045A1, “PYRIDINE AND PYRIMIDINE CARBOXYLATE HERBICIDES AND METHODS OF USE THEREOF” (Dow AgroSciences LLC, priority 2017, published 2023)

System: test plant species
Assay: Post-emergent herbicidal activity test (greenhouse, foliar spray, visual growth reduction)
Format: in vivo
Details: post-emergence, 336 h, ECHCG: barnyardgrass (Echinochloa crus-galli), 140 g ai/ha, 14 days after application, read-out: Visual Growth Reduction (%) 14 Days After Application, ECHCG
In short: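 Greenhouse plants at first–second true leaf stage sprayed overhead at 187 L/ha with compound in acetone/water/isopropanol/DMSO/crop oil/X-77 carrier; controls received solvent blank. Injury rated visually after 14 d on a 0–100% scale versus untreated and control plants, converted to growth reduction.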

| Compound | pest or weed control at 140 g/ha [%] |
| --- | --- |
| COC(=O)c1nc(-c2ccc(C3(C#N)CC3)cc2Cl)c(Cl)cc1Cl [F238, Methyl 3,5-dichloro-6-(2-chloro-4-(1-cyanocyclopropyl)phenyl)picolinate] | 0 to 29 |
| COC(=O)c1nc(-c2cc3c(cc2F)OC(F)(F)O3)c(OC)cc1Cl [F335, Methyl 3-chloro-5-methoxy-6-(2,2,6-trifluorobenzo[d][1,3]dioxol-5-yl)picolinate] | 0 to 29 |
| COC(=O)c1nc(-c2c(Cl)cccc2OC)c(F)cc1Cl [F301, Methyl 3-chloro-6-(2-chloro-6-methoxyphenyl)-5-fluoropicolinate] | 0 to 29 |

Same assay, conditions: post-emergence, 336 h, IPOHE: ivy-leaf morning glory (Ipomoea hederacea), 140 g ai/ha, 14 days after application, read-out: Visual Growth Reduction (%) 14 Days After Application, IPOHE

| Compound | pest or weed control at 140 g/ha [%] |
| --- | --- |
| COC(=O)c1nc(-c2ccc(C3(C#N)CC3)cc2Cl)c(Cl)cc1Cl [F238, Methyl 3,5-dichloro-6-(2-chloro-4-(1-cyanocyclopropyl)phenyl)picolinate] | 75 to 84 |
| COC(=O)c1nc(-c2cc3c(cc2F)OC(F)(F)O3)c(OC)cc1Cl [F335, Methyl 3-chloro-5-methoxy-6-(2,2,6-trifluorobenzo[d][1,3]dioxol-5-yl)picolinate] | 0 to 29 |
| COC(=O)c1nc(-c2c(Cl)cccc2OC)c(F)cc1Cl [F301, Methyl 3-chloro-6-(2-chloro-6-methoxyphenyl)-5-fluoropicolinate] | 0 to 29 |

Same assay, conditions: post-emergence, 336 h, KCHSC: kochia (Bassia scoparia), 140 g ai/ha, 14 days after application, read-out: Visual Growth Reduction (%) 14 Days After Application, KCHSC

| Compound | pest or weed control at 140 g/ha [%] |
| --- | --- |
| COC(=O)c1nc(-c2ccc(C3(C#N)CC3)cc2Cl)c(Cl)cc1Cl [F238, Methyl 3,5-dichloro-6-(2-chloro-4-(1-cyanocyclopropyl)phenyl)picolinate] | 0 to 29 |
| COC(=O)c1nc(-c2cc3c(cc2F)OC(F)(F)O3)c(OC)cc1Cl [F335, Methyl 3-chloro-5-methoxy-6-(2,2,6-trifluorobenzo[d][1,3]dioxol-5-yl)picolinate] | 0 to 29 |
| COC(=O)c1nc(-c2c(Cl)cccc2OC)c(F)cc1Cl [F301, Methyl 3-chloro-6-(2-chloro-6-methoxyphenyl)-5-fluoropicolinate] | 0 to 29 |

Same assay, conditions: post-emergence, 336 h, ORYSA: rice (Oryza sativa), 140 g ai/ha, 14 days after application, read-out: Visual Growth Reduction (%) 14 Days After Application, ORYSA

| Compound | pest or weed control at 140 g/ha [%] |
| --- | --- |
| COC(=O)c1nc(-c2ccc(C3(C#N)CC3)cc2Cl)c(Cl)cc1Cl [F238, Methyl 3,5-dichloro-6-(2-chloro-4-(1-cyanocyclopropyl)phenyl)picolinate] | 0 to 29 |
| COC(=O)c1nc(-c2cc3c(cc2F)OC(F)(F)O3)c(OC)cc1Cl [F335, Methyl 3-chloro-5-methoxy-6-(2,2,6-trifluorobenzo[d][1,3]dioxol-5-yl)picolinate] | 0 to 29 |
| COC(=O)c1nc(-c2c(Cl)cccc2OC)c(F)cc1Cl [F301, Methyl 3-chloro-6-(2-chloro-6-methoxyphenyl)-5-fluoropicolinate] | 0 to 29 |

Same assay, conditions: post-emergence, 336 h, SETFA: giant foxtail (Setaria faberi), 140 g ai/ha, 14 days after application, read-out: Visual Growth Reduction (%) 14 Days After Application, SETFA

| Compound | pest or weed control at 140 g/ha [%] |
| --- | --- |
| COC(=O)c1nc(-c2ccc(C3(C#N)CC3)cc2Cl)c(Cl)cc1Cl [F238, Methyl 3,5-dichloro-6-(2-chloro-4-(1-cyanocyclopropyl)phenyl)picolinate] | 45 to 59 |
| COC(=O)c1nc(-c2cc3c(cc2F)OC(F)(F)O3)c(OC)cc1Cl [F335, Methyl 3-chloro-5-methoxy-6-(2,2,6-trifluorobenzo[d][1,3]dioxol-5-yl)picolinate] | 0 to 29 |
| COC(=O)c1nc(-c2c(Cl)cccc2OC)c(F)cc1Cl [F301, Methyl 3-chloro-6-(2-chloro-6-methoxyphenyl)-5-fluoropicolinate] | 0 to 29 |

Same assay, conditions: post-emergence, 336 h, SORVU: grain sorghum (Sorghum vulgare), 140 g ai/ha, 14 days after application, read-out: Visual Growth Reduction (%) 14 Days After Application, SORVU

| Compound | pest or weed control at 140 g/ha [%] |
| --- | --- |
| COC(=O)c1nc(-c2ccc(C3(C#N)CC3)cc2Cl)c(Cl)cc1Cl [F238, Methyl 3,5-dichloro-6-(2-chloro-4-(1-cyanocyclopropyl)phenyl)picolinate] | 60 to 74 |
| COC(=O)c1nc(-c2cc3c(cc2F)OC(F)(F)O3)c(OC)cc1Cl [F335, Methyl 3-chloro-5-methoxy-6-(2,2,6-trifluorobenzo[d][1,3]dioxol-5-yl)picolinate] | 0 to 29 |
| COC(=O)c1nc(-c2c(Cl)cccc2OC)c(F)cc1Cl [F301, Methyl 3-chloro-6-(2-chloro-6-methoxyphenyl)-5-fluoropicolinate] | 0 to 29 |

Same assay, conditions: post-emergence, 336 h, STEME: common chickweed (Stellaria media), 140 g ai/ha, 14 days after application, read-out: Visual Growth Reduction (%) 14 Days After Application, STEME

| Compound | pest or weed control at 140 g/ha [%] |
| --- | --- |
| COC(=O)c1nc(-c2ccc(C3(C#N)CC3)cc2Cl)c(Cl)cc1Cl [F238, Methyl 3,5-dichloro-6-(2-chloro-4-(1-cyanocyclopropyl)phenyl)picolinate] | 0 to 29 |
| COC(=O)c1nc(-c2cc3c(cc2F)OC(F)(F)O3)c(OC)cc1Cl [F335, Methyl 3-chloro-5-methoxy-6-(2,2,6-trifluorobenzo[d][1,3]dioxol-5-yl)picolinate] | 0 to 29 |
| COC(=O)c1nc(-c2c(Cl)cccc2OC)c(F)cc1Cl [F301, Methyl 3-chloro-6-(2-chloro-6-methoxyphenyl)-5-fluoropicolinate] | 0 to 29 |

Same assay, conditions: post-emergence, 336 h, TRZAS: wheat, spring (Triticum aestivum), 140 g ai/ha, 14 days after application, read-out: Visual Growth Reduction (%) 14 Days After Application, TRZAS

| Compound | pest or weed control at 140 g/ha [%] |
| --- | --- |
| COC(=O)c1nc(-c2ccc(C3(C#N)CC3)cc2Cl)c(Cl)cc1Cl [F238, Methyl 3,5-dichloro-6-(2-chloro-4-(1-cyanocyclopropyl)phenyl)picolinate] | 0 to 29 |
| COC(=O)c1nc(-c2cc3c(cc2F)OC(F)(F)O3)c(OC)cc1Cl [F335, Methyl 3-chloro-5-methoxy-6-(2,2,6-trifluorobenzo[d][1,3]dioxol-5-yl)picolinate] | 0 to 29 |
| COC(=O)c1nc(-c2c(Cl)cccc2OC)c(F)cc1Cl [F301, Methyl 3-chloro-6-(2-chloro-6-methoxyphenyl)-5-fluoropicolinate] | 0 to 29 |

Same assay, conditions: post-emergence, 336 h, blackgrass (Alopecurus myosuroides), 14 Days After Application, 140 g ai/ha, read-out: Visual Growth Reduction (%) ALOMY

| Compound | pest or weed control at 140 g/ha [%] |
| --- | --- |
| COC(=O)c1nc(-c2ccc(C3(C#N)CC3)cc2Cl)c(Cl)cc1Cl [F238, Methyl 3,5-dichloro-6-(2-chloro-4-(1-cyanocyclopropyl)phenyl)picolinate] | 0 to 29 |
| COC(=O)c1nc(-c2cc3c(cc2F)OC(F)(F)O3)c(OC)cc1Cl [F335, Methyl 3-chloro-5-methoxy-6-(2,2,6-trifluorobenzo[d][1,3]dioxol-5-yl)picolinate] | 0 to 29 |
| COC(=O)c1nc(-c2c(Cl)cccc2OC)c(F)cc1Cl [F301, Methyl 3-chloro-6-(2-chloro-6-methoxyphenyl)-5-fluoropicolinate] | 0 to 29 |

Same assay, conditions: post-emergence, 336 h, canada thistle (Cirsium arvense), 14 Days After Application, 140 g ai/ha, read-out: Visual Growth Reduction (%) CIRAR

| Compound | pest or weed control at 140 g/ha [%] |
| --- | --- |
| COC(=O)c1nc(-c2ccc(C3(C#N)CC3)cc2Cl)c(Cl)cc1Cl [F238, Methyl 3,5-dichloro-6-(2-chloro-4-(1-cyanocyclopropyl)phenyl)picolinate] | 60 to 74 |
| COC(=O)c1nc(-c2c(Cl)cccc2OC)c(F)cc1Cl [F301, Methyl 3-chloro-6-(2-chloro-6-methoxyphenyl)-5-fluoropicolinate] | 0 to 29 |

Same assay, conditions: post-emergence, 336 h, crabgrass (Digitaria sanguinalis), 14 Days After Application, 140 g ai/ha, read-out: Visual Growth Reduction (%) DIGSA

| Compound | pest or weed control at 140 g/ha [%] |
| --- | --- |
| COC(=O)c1nc(-c2ccc(C3(C#N)CC3)cc2Cl)c(Cl)cc1Cl [F238, Methyl 3,5-dichloro-6-(2-chloro-4-(1-cyanocyclopropyl)phenyl)picolinate] | 60 to 74 |
| COC(=O)c1nc(-c2cc3c(cc2F)OC(F)(F)O3)c(OC)cc1Cl [F335, Methyl 3-chloro-5-methoxy-6-(2,2,6-trifluorobenzo[d][1,3]dioxol-5-yl)picolinate] | 0 to 29 |
| COC(=O)c1nc(-c2c(Cl)cccc2OC)c(F)cc1Cl [F301, Methyl 3-chloro-6-(2-chloro-6-methoxyphenyl)-5-fluoropicolinate] | 0 to 29 |

Same assay, conditions: post-emergence, 336 h, lambsquarters (Chenopodium album), 14 Days After Application, 140 g ai/ha, read-out: Visual Growth Reduction (%) CHEAL

| Compound | pest or weed control at 140 g/ha [%] |
| --- | --- |
| COC(=O)c1nc(-c2ccc(C3(C#N)CC3)cc2Cl)c(Cl)cc1Cl [F238, Methyl 3,5-dichloro-6-(2-chloro-4-(1-cyanocyclopropyl)phenyl)picolinate] | 95 to 100 |
| COC(=O)c1nc(-c2cc3c(cc2F)OC(F)(F)O3)c(OC)cc1Cl [F335, Methyl 3-chloro-5-methoxy-6-(2,2,6-trifluorobenzo[d][1,3]dioxol-5-yl)picolinate] | 30 to 44 |
| COC(=O)c1nc(-c2c(Cl)cccc2OC)c(F)cc1Cl [F301, Methyl 3-chloro-6-(2-chloro-6-methoxyphenyl)-5-fluoropicolinate] | 0 to 29 |

Same assay, conditions: post-emergence, 336 h, redroot pigweed (Amaranthus retroflexus), 14 Days After Application, 140 g ai/ha, read-out: Visual Growth Reduction (%) AMARE

| Compound | pest or weed control at 140 g/ha [%] |
| --- | --- |
| COC(=O)c1nc(-c2ccc(C3(C#N)CC3)cc2Cl)c(Cl)cc1Cl [F238, Methyl 3,5-dichloro-6-(2-chloro-4-(1-cyanocyclopropyl)phenyl)picolinate] | 45 to 59 |
| COC(=O)c1nc(-c2cc3c(cc2F)OC(F)(F)O3)c(OC)cc1Cl [F335, Methyl 3-chloro-5-methoxy-6-(2,2,6-trifluorobenzo[d][1,3]dioxol-5-yl)picolinate] | 0 to 29 |
| COC(=O)c1nc(-c2c(Cl)cccc2OC)c(F)cc1Cl [F301, Methyl 3-chloro-6-(2-chloro-6-methoxyphenyl)-5-fluoropicolinate] | 0 to 29 |

Same assay, conditions: post-emergence, 336 h, wild oat (Avena fatua), 14 Days After Application, 140 g ai/ha, read-out: Visual Growth Reduction (%) AVEFA

| Compound | pest or weed control at 140 g/ha [%] |
| --- | --- |
| COC(=O)c1nc(-c2ccc(C3(C#N)CC3)cc2Cl)c(Cl)cc1Cl [F238, Methyl 3,5-dichloro-6-(2-chloro-4-(1-cyanocyclopropyl)phenyl)picolinate] | 0 to 29 |
| COC(=O)c1nc(-c2cc3c(cc2F)OC(F)(F)O3)c(OC)cc1Cl [F335, Methyl 3-chloro-5-methoxy-6-(2,2,6-trifluorobenzo[d][1,3]dioxol-5-yl)picolinate] | 0 to 29 |
| COC(=O)c1nc(-c2c(Cl)cccc2OC)c(F)cc1Cl [F301, Methyl 3-chloro-6-(2-chloro-6-methoxyphenyl)-5-fluoropicolinate] | 0 to 29 |

Same assay, conditions: post-emergence, 336 h, yellow nutsedge (Cyperus esculentus), 14 Days After Application, 140 g ai/ha, read-out: Visual Growth Reduction (%) CYPES

| Compound | pest or weed control at 140 g/ha [%] |
| --- | --- |
| COC(=O)c1nc(-c2ccc(C3(C#N)CC3)cc2Cl)c(Cl)cc1Cl [F238, Methyl 3,5-dichloro-6-(2-chloro-4-(1-cyanocyclopropyl)phenyl)picolinate] | 0 to 29 |
| COC(=O)c1nc(-c2cc3c(cc2F)OC(F)(F)O3)c(OC)cc1Cl [F335, Methyl 3-chloro-5-methoxy-6-(2,2,6-trifluorobenzo[d][1,3]dioxol-5-yl)picolinate] | 0 to 29 |
| COC(=O)c1nc(-c2c(Cl)cccc2OC)c(F)cc1Cl [F301, Methyl 3-chloro-6-(2-chloro-6-methoxyphenyl)-5-fluoropicolinate] | 0 to 29 |
